In US9119877B2, “Therapeutic combination comprising a Cdc7 inhibitor and an anti-neoplastic agent” (NERVIANO MEDICAL SCIENCES S.R.L., priority 2010, dated 2015):
Read-outs that look alike come from different tables or passages of the source. Values belong to the compound of their own block, whether it stands above or below them.

Tests used:
[1] = female, CD1 Nu/Nu, mouse, in vivo
Description: (§1) CD1 Nu/Nu female mice were obtained from Charles River, Italy, The animals were maintained in cages using steam autoclaved (sterile) bedding, sterilized diet and water were offered ad libitum. MX-1 human breast carcinoma (from American Type Culture Collection) was maintained by subcutaneous (SC) transplantation in athymic mice. Viable MX-1 tumor fragments (weighting 20-30 mg) were obtained aseptically from stock tumors and transplanted subcutaneously by trocar implantation into the left flank of athymic nude mice. Animals were examined regularly for the appearance of tumors.
(§2) Docetaxel was administered by intravenous route at the dose of 5 mg/kg on days 1, 8, 15. […] Tumor growth and body weight were measured every 3 days, Tumor growth was assessed by caliper. The two diameters were recorded and the tumor weight was calculated according to the following formula: length (mm)×width^2/2. The effect of the antitumor treatment was evaluated as the delay in the onset of an exponential growth of the tumor (see for references Anticancer drugs 7:437-60, 1996). This delay (T-C value) was defined as the difference of time (in days) required for the treatment group (T) and the control group (C) tumors to reach a predetermined size (1 g). Toxicity was evaluated on the basis of body weight reduction.

[2] = system: MX-1 human breast carcinoma; experiment: tumor growth delay, MX-1 xenograft, combination with docetaxel; assay type: in vivo; settings: MX-1 in CD1 Nu/Nu female mice, time to reach 1 g
Description: as §1, §2

[3] = system: Mcf-7 human breast adenocarcinoma cell line; experiment: cell proliferation (CellTiterGlo), single agents and combinations, Mcf-7; assay type: cell-based
Description: (§3) Materials and methods. […] Drugs were added to the experimental culture, and incubations were carried out at 37° C. for 72 hours in the dark. […] Drug solutions were prepared immediately before use. At the end of treatment, cell proliferation was determined by an intracellular adenosine triphosphate monitoring system (CellTiterGlo-Promega) using an Envision (PerkinElmer) reader. Inhibitory activity was evaluated comparing treated versus control data using the Assay Explorer (MDL) program. The dose inhibiting 50% of cell growth was calculated using sigmoidal interpolation curve.

[4] = system: A2780 human ovarian carcinoma cell line; experiment: cell proliferation (CellTiterGlo), single agents and combinations, A2780; assay type: cell-based; settings: single agent, 72 hours
Description: (§4) Materials and methods. Exponentially growing human breast cancer (Mcf-7), human ovarian cancer (A-2780), human multiple myeloma (L-363), human colorectal cancer (HCT-116) and human melanoma (A-375) cell lines were seeded and incubated at 37° C. in a humidified 5% CO2 atmosphere. Drugs were added to the experimental culture, and incubations were carried out at 37° C. for 72 hours in the dark. Scalar doses of the compound of formula (I) and antineoplastic agents were added to the medium starting from 24 hours after seeding. Drug solutions were prepared immediately before use. At the end of treatment, cell proliferation was determined by an intracellular adenosine triphosphate monitoring system (CellTiterGlo-Promega) using an Envision (PerkinElmer) reader. Inhibitory activity was evaluated comparing treated versus control data using the Assay Explorer (MDL) program. The dose inhibiting 50% of cell growth was calculated using sigmoidal interpolation curve. Combination indices (C.I.) were calculated using a proprietary computer program for multiple drug effect analysis based on the equation of Chou-Talalay (Adv Enzyme Regul 1984;22:27-55) for mutually nonexclusive drugs, where a C.I. of <1 indicates a more than additive effect: C.I.: >3 strong antagonism; 1.3-3 antagonism; 1.2-0.8 additivity; 0.8-0.3 synergism; <0.3 strong synergism.

[5] = system: HCT116 human colon carcinoma cell line; experiment: cell proliferation (CellTiterGlo), single agents and combinations, HCT116; assay type: cell-based
Description: as §3

[6] = system: A375 human melanoma cell line; experiment: cell proliferation (CellTiterGlo), single agents and combinations, A375; assay type: cell-based; settings: A-375, 72 h
Description: as §3

[7] = toxicity on the basis of body weight reduction, MX-1 study with bevacizumab; assay type: in vivo
Description: (§5) Animals were examined regularly for the appearance of tumors. The treatment started when tumors were palpable. Compound of formula (I) was administered by oral route in a volume of 10 ml/kg at the daily dose of 20 mg/kg on days 2, 4, 6, 8, 10 and 12. Bevacizumab was administered by intravenous route at the dose of 20 mg/kg on days 1, 5, 9 and 13. When combined, compound of formula (I) was administered on days 2, 4, 6, 8, 10 and 12 and bevacizumab on days 1, 5, 9 and 13. […] Tumor growth was assessed by caliper.

[8] = system: L-363 human Multiple Myeloma cell line; experiment: cell proliferation (CellTiterGlo), single agents and combinations, L-363; assay type: cell-based
Description: as §4

[9] = toxicity on the basis of body weight reduction, HCT-116 study with irinotecan; assay type: in vivo
Description: (§6) Balb, Nu/Nu male mice, from Harlan (Italy), were maintained in agreement with the European Communities Council Directive no. 86/609/EEC, in cages with paper filter cover, food and bedding sterilized and acidified water. Fragments of HCT-116 human colon cancer tumors were implanted subcutaneously. The treatment started when tumors were palpable. […] Irinotecan was administered by intravenous route at the dose of 45 mg/kg on days 1, 5, 9. […] Tumor growth was assessed by caliper.

[10] = system: MX-1 human breast carcinoma; experiment: tumor growth delay, MX-1 xenograft, combination with bevacizumab; assay type: in vivo; settings: MX-1 in CD-1 Nu/Nu female mice, time to reach 1 g
Description: as §5

[11] = system: HCT-116 human colon cancer tumors; experiment: tumor growth delay, HCT-116 xenograft, combination with irinotecan; assay type: in vivo; settings: HCT-116 in Balb Nu/Nu male mice, time to reach 1 g
Description: as §6

[12] = 20 mg/kg oral on days 2, 4, 6, 8, 10, 12

Compound: CC(=O)O[C@@]12CO[C@@H]1C[C@H](O)[C@@]1(C)C(=O)[C@H](O)C3=C(C)[C@@H](OC(=O)[C@H](O)[C@@H](NC(=O)OC(C)(C)C)c4ccccc4)C[C@@](O)([C@@H](OC(=O)c4ccccc4)[C@H]21)C3(C)C [docetaxel]
Toxicity ([1]; iv, 5 mg/kg): 0/7 | T-C ([2]; 5 mg/kg intravenous on days 1, 8, 15): 9 days

IC50 ([3]; Homo sapiens, MCF7, Mcf-7, single agent, 72 hours, Table 5, read-out: IC50 (μM) etoposide): 12.7 µM
Compound: COc1cc([C@@H]2c3cc4c(cc3[C@@H](O[C@@H]3O[C@@H]5CO[C@@H](C)O[C@H]5[C@H](O)[C@H]3O)[C@H]3COC(=O)[C@H]23)OCO4)cc(OC)c1O [etoposide]

IC50 ([3]; Homo sapiens, MCF7, Mcf-7, single agent, 72 hours, Table 6, read-out: IC50 (μM) paclitaxel): 0.008 µM
Compound: CC(=O)O[C@H]1C(=O)[C@@]2(C)[C@H]([C@H](OC(=O)c3ccccc3)[C@]3(O)C[C@H](OC(=O)[C@H](O)[C@@H](NC(=O)c4ccccc4)c4ccccc4)C(C)=C1C3(C)C)[C@]1(OC(C)=O)CO[C@@H]1C[C@@H]2O [paclitaxel]

Compound: NC(=O)c1cc(-c2ccnc(N)n2)[nH]c1-c1ccc(Cl)cc1Cl [Compound of formula (I), 5-(2-Amino-pyrimidin-4-yl)-2-(2,4-dichloro-phenyl)-1H-pyrrole-3-carboxylic acid amide]
IC50 ([4]; Homo sapiens, Table 3 (cisplatin experiment), read-out: IC50 (μM) Compound of formula (I)): 0.52 µM | IC50 ([5]; HCT-116, 72 h, read-out: IC50 (μM) Compound of formula (I)): 0.8 µM | IC50 ([6]; read-out: IC50 (μM) Compound of formula (I), A375, single agent, Table 11 (dacarbazine, sequential experiment)): 1.21 µM | IC50 ([6]; read-out: IC50 (μM) Compound of formula (I), A375, single agent, Table 12 (dacarbazine, simultaneous experiment)): 0.86 µM | Toxicity ([1]; po, 20 mg/kg): 0/7 | IC50 ([3]; Homo sapiens, MCF7, 72 h, read-out: IC50 (μM) Compound of formula (I), Mcf-7, single agent, Table 1 (gemcitabine experiment)): 1.1 µM | IC50 ([3]; Homo sapiens, MCF7, 72 h, read-out: IC50 (μM) Compound of formula (I), Mcf-7, single agent, Table 2 (cisplatin experiment)): 1.7 µM | IC50 ([3]; Homo sapiens, MCF7, 72 h, read-out: IC50 (μM) Compound of formula (I), Mcf-7, single agent, Table 4 (SN-38 experiment)): 0.77 µM | IC50 ([3]; Homo sapiens, MCF7, 72 h, read-out: IC50 (μM) Compound of formula (I), Mcf-7, single agent, Table 5 (etoposide experiment)): 1.11 µM | IC50 ([3]; Homo sapiens, MCF7, 72 h, read-out: IC50 (μM) Compound of formula (I), Mcf-7, single agent, Table 6 (paclitaxel experiment)): 0.67 µM | IC50 ([3]; Homo sapiens, MCF7, 72 h, read-out: IC50 (μM) Compound of formula (I), Mcf-7, single agent, Table 7 (erlotinib experiment)): 1.87 µM | IC50 ([3]; Homo sapiens, MCF7, 72 h, read-out: IC50 (μM) Compound of formula (I), Mcf-7, single agent, Table 8 (bortezomib experiment)): 0.767 µM | Toxicity ([7]; female, CD-1 Nu/Nu, mouse, in vivo, po, 20 mg/kg): 0/7 | IC50 ([8]; L-363, 72 h, read-out: IC50 (μM) Compound of formula (I)): 0.38 µM | Toxicity ([9]; male, Balb Nu/Nu, mouse, in vivo, po, 20 mg/kg): 0/7 | T-C ([2]; 20 mg/kg oral on days 2, 4, 6, 9, 11, 13): 10 days | T-C [10, 12]: 13 days | T-C [11, 12]: 4 days

Compound: CCc1c2c(nc3ccc(OC(=O)N4CCC(N5CCCCC5)CC4)cc13)-c1cc3c(c(=O)n1C2)COC(=O)[C@]3(O)CC [irinotecan]
Toxicity ([9]; HCT-116 study, 45 mg/kg intravenous on days 1, 5, 9, body weight reduction): 0/7 | T-C ([11]; 45 mg/kg intravenous on days 1, 5, 9): 18 days

IC50 ([5]; HCT-116, HCT116, single agent, 72 hours, Table 9, read-out: IC50 (μM) bortezomib): 0.009 µM | IC50 ([3]; Homo sapiens, MCF7, Mcf-7, single agent, 72 hours, Table 8, read-out: IC50 (μM) bortezomib): 0.011 µM
Compound: CC(C)C[C@H](NC(=O)[C@H](Cc1ccccc1)NC(=O)c1cnccn1)B(O)O [bortezomib]

IC50 ([3]; Homo sapiens, MCF7, Mcf-7, single agent, 72 hours, Table 7, read-out: IC50 (μM) erlotinib): 74.8 µM
Compound: C#Cc1cccc(Nc2ncnc3cc(OCCOC)c(OCCOC)cc23)c1 [erlotinib]

IC50 ([6]; A375, single agent, Table 11 (sequential experiment), read-out: IC50 (μM) dacarbazine): 37 µM | IC50 ([6]; A375, single agent, Table 12 (simultaneous experiment), read-out: IC50 (μM) dacarbazine): 83 µM
Compound: CN(C)/N=N/c1[nH]cnc1C(N)=O [dacarbazine]

IC50 ([8]; L-363, single agent, 72 hours, Table 10, read-out: IC50 (μM) ABT-263): 7.3 µM
Compound: CC1(C)CCC(c2ccc(Cl)cc2)=C(CN2CCN(c3ccc(C(=O)NS(=O)(=O)c4ccc(N[C@H](CCN5CCOCC5)CSc5ccccc5)c(S(=O)(=O)C(F)(F)F)c4)cc3)CC2)C1 [ABT-263, Navitoclax]

Compound: CCc1c2c(nc3ccc(O)cc13)-c1cc3c(c(=O)n1C2)COC(=O)[C@]3(O)CC [SN38, SN-38]
IC50 ([3]; Mcf-7, single agent, 72 hours, Table 4, read-out: IC50 (μM) SN38): 0.024 µM

Compound: N.N.[Cl][Pt][Cl] [cisplatin]
IC50 ([4]; Table 3, read-out: IC50 (μM) cisplatin): 3 µM | IC50 ([3]; Mcf-7, single agent, 72 hours, Table 2, read-out: IC50 (μM) cisplatin): 10.2 µM

Compound: bevacizumab
Toxicity ([7]; MX-1 study, 20 mg/kg intravenous on days 1, 5, 9, 13, body weight reduction): 0/7 | T-C ([10]; 20 mg/kg intravenous on days 1, 5, 9, 13): 13 days

IC50 ([3]; Homo sapiens, MCF7, Mcf-7, single agent, 72 hours, Table 1, read-out: IC50 (μM) Gemcitabine): 0.79 µM
Compound: Nc1ccn([C@@H]2O[C@H](CO)[C@@H](O)C2(F)F)c(=O)n1 [Gemcitabine, gemcitabine]
